Measurements reported in US5629285A, “Inhibitors of TNF-α secretion” (Immunex Corporation, priority 1996, dated 1997).

Assays:
serum TNF-α [1] = assay: In vivo inhibition of TACE: LPS-induced serum TNF levels, 500 μg compound s.c.; parameters: species or system Balb/c mice; settings: for Serum TNF-α level: 500 μg s.c. with 400 μg LPS i.v., serum 2 hours after LPS, pooled from two mice, Saline/DMSO control 157
Experimental: Female Balb/c mice (18-20 g) were injected i.v. with 400 μg of LPS. Simultaneously, the mice were injected subcutaneously with 500 μg of Compound A or Compound 1 in 0.5 ml of saline containing 0.02% DMSO. Control mice received LPS intravenously and saline/DMSO subcutaneously. Two hours following the LPS injection, serum was obtained and pooled from two mice in each treatment group.
In a similar manner to the procedure described above, mice were injected i.v. with 400 μg LPS. Simultaneously, the mice were injected subcutaneously with 500 μg Compound 1 in 0.5 ml saline containing 0.02% DMSO. Two hours later, serum was obtained and pooled. TNF-α levels were determined by ELISA.

serum TNF-α [2] = assay: In vivo inhibition of TACE: LPS-induced serum TNF levels, 250 μg compound s.c.; parameters: species or system Balb/c mice; settings: 2 hours; for serum TNF-α, mean optical density (OD) in the ELISA: 250 μg s.c. in saline/DMSO with 450 μg LPS i.v., three mice, LPS + Saline + DMSO 0.268 ± 0.040, background OD 0.162±0.003; for effect on serum TNF-α levels in LPS-stimulated mice: 250 μg s.c., 450 μg LPS i.v.
Experimental: Female Balb/c mice (18-20 g) were injected i.v. with 450 μg of LPS. Simultaneously, the mice were injected subcutaneously with 250 μg of Compound A or Compound 1 in 0.25 ml of saline containing 0.02% DMSO. Control mice received LPS intravenously and saline/DMSO subcutaneously. Two hours following the LPS injection, serum was obtained from three mice in each treatment group. TNF-α levels were determined by ELISA. The results are expressed as the mean optical density (OD) obtained in the ELISA from each treatment group, and are shown in Table V. The background OD of the control sample was 0.162±0.003.

purified TACE = purified TACE (Homo sapiens, UniProt P78536); assay: Serum stability in normal mouse serum, read out as inhibitory efficacy against purified TACE; assay type: in vitro ADME; settings: 50 μM in normal mouse serum, 37° C., after 40 minutes
purified TACE, sequence (P78536 215-824): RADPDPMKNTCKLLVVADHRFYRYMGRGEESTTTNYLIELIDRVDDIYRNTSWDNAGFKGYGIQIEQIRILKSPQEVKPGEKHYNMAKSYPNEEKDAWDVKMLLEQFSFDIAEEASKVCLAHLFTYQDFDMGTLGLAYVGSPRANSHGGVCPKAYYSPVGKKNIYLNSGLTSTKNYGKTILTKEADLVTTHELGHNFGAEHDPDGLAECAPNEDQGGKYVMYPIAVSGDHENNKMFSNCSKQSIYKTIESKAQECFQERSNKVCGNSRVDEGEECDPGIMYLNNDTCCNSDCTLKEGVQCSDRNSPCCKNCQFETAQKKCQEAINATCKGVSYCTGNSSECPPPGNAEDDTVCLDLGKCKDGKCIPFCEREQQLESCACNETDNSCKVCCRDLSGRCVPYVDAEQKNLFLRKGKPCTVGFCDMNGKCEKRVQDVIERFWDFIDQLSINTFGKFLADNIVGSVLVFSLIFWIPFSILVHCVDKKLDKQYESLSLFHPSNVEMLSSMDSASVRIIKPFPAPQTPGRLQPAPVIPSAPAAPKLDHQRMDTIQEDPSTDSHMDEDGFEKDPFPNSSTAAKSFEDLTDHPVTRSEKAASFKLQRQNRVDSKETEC
Experimental: Each of Compound 1 and Compound A was diluted to 50 μM in normal mouse serum and incubated at 37° C. At various times, aliquots were withdrawn, diluted 100-fold into ice-cold PBS, and tested for inhibitory, efficacy against purified TACE.

TNF-α secretion = assay: Inhibition of TNF-α release by anti-CD3 + PMA stimulated peripheral blood T-cells (ELISA); assay type: cell-based, human; parameters: key to TNF-α (pg/ml), 3 Hrs.: .dagger.: undetectable
Experimental: (§1) Human peripheral blood T-cells were purified from peripheral blood mononuclear cells by rosetting with 2-aminoethylisothiouronium bromide hydrobromide-treated sheep erythrocytes. After hypotonic lysis of sheep erythrocytes, monocytes were depleted by plastic adherence for one hour at 37° C. The peripheral […] T-cells were stimulated with anti-CD3 antibody (OKT3) which was immobilized on the culture wells at 10 μg/ml in PBS plus […] of the phorbol ester, PMA. Culture medium comprised RPMI 1640 medium containing 10% fetal bovine serum, 50 U/ml penicillin, and 50 μg/ml streptomycin. The stimulation was performed in the presence or absence of the inhibitor Compound 1 (200 μM), and TNF-α in the medium was assayed by ELISA.

TNF-β secretion = assay: TNF-β production by anti-CD3 + PMA stimulated peripheral blood T-cells; assay type: cell-based, human; parameters: key to TNF-β (pg/ml), 3 Hrs.: .dagger.: undetectable
Experimental: [The source words this procedure for another target and reports this target under the same test.] as §1

IFN-γ secretion = assay: IFN-γ production by anti-CD3 + PMA stimulated peripheral blood T-cells; assay type: cell-based, human
Experimental: [The source words this procedure for another target and reports this target under the same test.] as §1

cell surface TNF-α = assay: Cell surface TNF-α on PMA + ionomycin-stimulated human T-cell clone PL-1 (TNFR:Fc staining, FACS); assay type: cell-based
Experimental: (§2) Detection of cell surface TNF-α was performed by staining with an Fc fusion protein consisting of an Fc portion of a human IgG1 molecule (IgGFc) coupled with an extracellular domain of TNF receptor (p80). Detection of cell surface ligands for 41BB and CD40 was performed by staining with analogous Fc fusion proteins consisting of IgGFc and extracellular domains of 41BB and CD40, respectively. […] TNFR:Fc and IL-4R:Fc fusion proteins are described in EP 0 464 533, incorporated herein by reference. The same general procedures used to construct the TNFR:Fc and IL-4R:Fc fusion molecules were utilized in the construction of the 41BB:Fc and CD40:Fc molecules. Fc fusion proteins bound to their respective cell-surface ligands were then detected with a biotinylated anti-human IgG1 followed by streptavidin-phycoerythrin. The intensity of staining was measured by a FACS (fluorescence activated cell sorting) scan flow cytometer.

41BBL = assay: Cell surface 41BBL on PMA + ionomycin-stimulated human T-cell clone PL-1 (41BB:Fc staining, FACS); assay type: cell-based
Experimental: as §2

CD40L = assay: Cell surface CD40L on PMA + ionomycin-stimulated human T-cell clone PL-1 (CD40:Fc staining, FACS); assay type: cell-based
Experimental: as §2

IL-4 = assay: Cell surface IL-4 on PMA + ionomycin-stimulated human T-cell clone PL-1 (IL-4R:Fc staining, negative control); assay type: cell-based; settings: + Compound 1 (10 without)
Experimental: as §2

[3] = with Compound 1 200 μM, 24 Hrs.
[4] = with Compound 1 200 μM, 48 Hrs.

SMILES: CC(C)CC(CC(=O)NO)C(=O)N[C@@H](Cc1ccc2ccccc2c1)C(=O)N[C@@H](C)C(N)=O (stereo partly drawn) [Compound A, N-{D,L-2-(hydroxyaminocarbonyl)methyl-4-methylpentanoyl}L-3-(2'naphthyl)-a lanyl-L-alanine amide, reference compound]
- Serum TNF-α level (serum TNF-α [1]): 65 pg/mL
- reduction of serum TNF-α levels as compared to the saline/DMSO control (serum TNF-α [1]; 500 μg s.c., 400 μg LPS i.v., 2 hours): approximately 60%
- serum TNF-α, mean optical density (OD) in the ELISA (serum TNF-α [2]): 0.299 ± 0.023 OD
- effect on serum TNF-α levels in LPS-stimulated mice (serum TNF-α [2]): no effect
- decrease in inhibitory effect against purified TACE, as loss in concentration of the compound (purified TACE): 3-4 fold

SMILES: CC(C)CC(CC(=O)NO)C(=O)N[C@@H](Cc1ccc2ccccc2c1)C(=O)N[C@@H](C)C(=O)NCCN (stereo partly drawn) [Compound 1, N-{D,L-2-(hydroxyaminocarbonyl)methyl-4-methylpentanoyl}-L-3-(2'-naphthyl) alanyl-L-alanine, 2-aminoethyl amide]
- inhibition of TNF-α release (TNF-α secretion; 200 μM, 48 hours): 63%
- TNF-α in the medium (TNF-α secretion; 200 μM, after 3 hours, 100 pg/ml without compound): no detectable
- TNF-α (pg/ml), 3 Hrs. (TNF-α secretion; with Compound 1 200 μM, medium of stimulated peripheral blood T cells, 3 Hrs.): .dagger.
- TNF-α (pg/ml), 24 Hrs. (TNF-α secretion; with Compound 1 200 μM, medium of stimulated peripheral blood T cells, 24 Hrs.): 100 pg/mL
- TNF-α (pg/ml), 48 Hrs. (TNF-α secretion; with Compound 1 200 μM, medium of stimulated peripheral blood T cells, 48 Hrs.): 300 pg/mL
- inhibitory effect on the release of TNF-β (TNF-β secretion; 200 μM, 24 and 48 hours): no inhibitory effect
- TNF-β (pg/ml), 3 Hrs. (TNF-β secretion; with Compound 1 200 μM, 3 Hrs.): .dagger.
- TNF-β (pg/ml), 24 Hrs. (TNF-β secretion; [3]): 160 pg/mL
- TNF-β (pg/ml), 48 Hrs. (TNF-β secretion; [4]): 1050 pg/mL
- inhibitory effect on the release of interferon-γ (IFN-γ secretion; 200 μM, 24 and 48 hours): no inhibitory effect
- IFN-γ (ELISA OD), 3 Hrs. (IFN-γ secretion; with Compound 1 200 μM, 3 Hrs.): 0.2 ELISA OD
- IFN-γ (ELISA OD), 24 Hrs. (IFN-γ secretion; [3]): 0.9 ELISA OD
- IFN-γ (ELISA OD), 48 Hrs. (IFN-γ secretion; [4]): 1.08 ELISA OD
- cell surface TNF-α (MFI) (cell surface TNF-α; 4h after stimulation, + Compound 1 (83 without)): 3040 MFI, arbitrary units
- cell surface TNF-α (MFI) (cell surface TNF-α; 18h after stimulation, + Compound 1 (7 without)): 616 MFI, arbitrary units
- increase in TNFR:Fc binding (cell surface TNF-α; 18 hours of stimulation, presence vs absence of Compound 1): 100 fold
- cell surface 41BBL (MFI) (41BBL; 4h after stimulation, + Compound 1 (428 without)): 344 MFI, arbitrary units
- cell surface 41BBL (MFI) (41BBL; 18h after stimulation, + Compound 1 (5 without)): 9 MFI, arbitrary units
- enhancement of 41BB:Fc binding (41BBL; 18 hours of stimulation): approximately 2 fold
- increase on 41BB:Fc binding (41BBL; four hours of stimulation): no increase
- cell surface CD40L (MFI) (CD40L; 4h after stimulation, + Compound 1 (107 without)): 107 MFI, arbitrary units
- cell surface CD40L (MFI) (CD40L; 18h after stimulation, + Compound 1 (19 without)): 46 MFI, arbitrary units
- enhancement of CD40:Fc binding (CD40L; 18 hours of stimulation): approximately 2 fold
- increase on CD40:Fc binding (CD40L; four hours of stimulation): no increase
- cell surface IL-4 (MFI) (IL-4; 4h after stimulation): 10 MFI, arbitrary units
- cell surface IL-4 (MFI) (IL-4; 18h after stimulation): 10 MFI, arbitrary units
- Serum TNF-α level (serum TNF-α [1]): undetectable
- reduction of serum TNF-α levels in a murine model of LPS-induced sepsis syndrome (serum TNF-α [1]; 25 mg/kg, from Tables III and IV): at least 80%
- LPS-induced serum TNF level (serum TNF-α [1]; Experiment No. 1, 500 μg s.c., 400 μg LPS i.v., 2 hours, LPS only 1696, LPS + Saline 1268): 301 pg/mL
- LPS-induced serum TNF level (serum TNF-α [1]; Experiment No. 2, 500 μg s.c., 400 μg LPS i.v., 2 hours, LPS only 2527, LPS + Saline 1768): 269 pg/mL
- LPS-induced serum TNF level (serum TNF-α [1]; Experiment No. 3, 500 μg s.c., 400 μg LPS i.v., 2 hours, LPS only 1833, LPS + Saline 1732): 281 pg/mL
- reduction of serum TNF-α levels as compared to LPS only (serum TNF-α [1]; experiment 1, 500 μg s.c.): 82%
- reduction of serum TNF-α levels as compared to LPS+saline (serum TNF-α [1]; experiment 1, 500 μg s.c.): 76%
- reduction of serum TNF-α levels as compared to LPS only (serum TNF-α [1]; experiment 2, 500 μg s.c.): 89%
- reduction of serum TNF-α levels as compared to LPS+saline (serum TNF-α [1]; experiment 2, 500 μg s.c.): 85%
- reduction of serum TNF-α levels as compared to LPS only (serum TNF-α [1]; experiment 3, 500 μg s.c.): 85%
- reduction of serum TNF-α levels as compared to LPS+saline (serum TNF-α [1]; experiment 3, 500 μg s.c.): 84%
- overall reduction of serum TNF-α levels as compared to LPS only (serum TNF-α [1]; experiments 1-3, 500 μg s.c.): 85.4±2.98%
- serum TNF-α, mean optical density (OD) in the ELISA (serum TNF-α [2]): 0.147 ± 0.004 OD
- effect on serum TNF-α levels in LPS-stimulated mice (serum TNF-α [2]): complete inhibition
- decrease in inhibitory effect against purified TACE, as loss in concentration of the compound (purified TACE): no decrease
